Results: publication PMC12621200, “Giving an Enzyme Scissors: Serotonin Derivatives as Potent Organocatalytic Switches for DNA Repair Enzyme OGG1” (Journal of Medicinal Chemistry, 2025)

Target: T1, K249A mutant OGG1 (Homo sapiens, UniProt O15527, K249A)
T1 construct: made in house
Assay: AP-lyase assay on radiolabeled AP-site-containing oligonucleotide (PAGE)
Format: biochemical
Conditions: Figure S8; call rule not given here

T1 sequence (O15527 whole entry K249A): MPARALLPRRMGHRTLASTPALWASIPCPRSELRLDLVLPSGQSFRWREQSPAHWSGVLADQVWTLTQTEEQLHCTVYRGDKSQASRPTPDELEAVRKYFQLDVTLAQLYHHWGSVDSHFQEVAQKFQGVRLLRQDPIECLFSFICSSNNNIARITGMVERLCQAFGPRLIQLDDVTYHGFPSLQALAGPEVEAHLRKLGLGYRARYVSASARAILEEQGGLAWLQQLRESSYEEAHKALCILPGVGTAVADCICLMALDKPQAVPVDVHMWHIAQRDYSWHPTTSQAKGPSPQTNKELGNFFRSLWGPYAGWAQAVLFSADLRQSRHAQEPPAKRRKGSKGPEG

Row | Structure (SMILES) | restoration of AP-lyase activity of Lys249Ala mutant
1 | NCCc1c(-c2cncc(F)c2)[nH]c2ccc(O)cc12 [Compound 41, 3-(2-Aminoethyl)-2-(5-fluoropyridin-3-yl)-1H-indol-5-ol] | failed to restore AP-lyase activity

Target: T2, NUDT15 (Homo sapiens, UniProt Q9NV35)
T2 construct: made in house
T2 sequence (Q9NV35 1-164): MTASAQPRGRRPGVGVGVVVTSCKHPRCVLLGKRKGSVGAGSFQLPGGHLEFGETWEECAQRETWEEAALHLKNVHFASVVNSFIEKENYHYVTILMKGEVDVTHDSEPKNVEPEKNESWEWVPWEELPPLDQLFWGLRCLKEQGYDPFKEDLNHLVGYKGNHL
Assay: not given
Design: method as in Hank et al. 1 and Kehler et al. 2
Conditions: reference compound; ref Hank et al. 1 and Kehler et al. 2; cited from earlier work

Row | Structure (SMILES) | Reference inhibition
2 | O=C(c1ccc2[nH]ccc2c1)N1CCN(S(=O)(=O)c2ccc3[nH]c(=O)oc3c2)CC1 [TH1760] | 96%

Target: T3, NUDT5 (Homo sapiens, UniProt Q9UKK9)
T3 construct: made in house
Assay: not given
Design: method as in Hank et al. 1 and Kehler et al. 2
Conditions: reference compound; ref Hank et al. 1 and Kehler et al. 2; cited from earlier work

Row | Structure (SMILES) | Reference inhibition
3 | Cn1c(=O)c2c(nc(N3CCNCC3)n2Cc2nnc(-c3ccc(Cl)c(Cl)c3)o2)n(C)c1=O [TH5427] | 99%

Target: T4, OGG1 (Homo sapiens, UniProt O15527)
T4 construct: made in house
Assay: Biochemical fluorescence (fluorophore-quencher) assay of OGG1 incision rate, 8-oxoA substrate
Conditions: not given

T4 sequence (O15527 whole entry): as the sequence (O15527 whole entry K249A) above, with A249K counted along it

Row | Structure (SMILES) | OGG1 activation, SAR result in words
4 | NCCc1c(-c2cncc(F)c2)[nH]c2ccc(O)cc12 [Compound 41, 3-(2-Aminoethyl)-2-(5-fluoropyridin-3-yl)-1H-indol-5-ol] | did not significantly affect potency
5 | CN(C)Cc1c(-c2ccccc2)[nH]c2ccccc12 [TH12166] | inhibited activity

Same assay, conditions: biochemical assay of virtual screening hits (NCI samples), Table S1

Row | Structure (SMILES) | AC50 (μM)
6 | Cn1c(=O)c2[nH]c(C3CCCCC3)nc2n(C)c1=O [NSC 14383] | inactive
7 | Cc1ccc(NC(C(=O)c2ccccc2)c2ccccc2)cc1 (centres unmarked) [NSC 26933] | inactive
8 | Cl.NC(=O)C1CCCN(Cc2c[nH]c3ccccc23)C1 (centres unmarked) [NSC 32474] | inactive
9 | O=C(c1ccccc1)[C@H](Nc1ccc2ccccc2c1)c1ccccc1 [NSC 34924] | inactive
10 | O=C1OC(c2c[nH]c3ccccc23)c2ccccc21 (centres unmarked) [NSC 42087] | inactive
11 | CC(N)Cc1c[nH]c2ccc(Cl)cc12.Cl (centres unmarked) [NSC 50457] | inactive
12 | FC(F)(F)c1nc(Nc2ccccc2)c2[nH]cnc2n1 [NSC 56385] | inactive
13 | O=c1cc(Nc2ccc(Cl)c(Cl)c2)[nH]c(=O)[nH]1 [NSC 62573] | inactive
14 | CC(N)Cc1c[nH]c2ccccc12 (centres unmarked) [NSC 97069] | inactive
15 | O=C1CCCCC1C(Nc1ccccc1)c1ccccc1 (centres unmarked) [NSC 123043] | inactive
16 | NC(=O)C(O)c1c[nH]c2ccccc12 (centres unmarked) [NSC 128331] | inactive
17 | Cc1[nH]c2ccccc2c(=O)c1CNCc1ccccc1 [NSC 133478] | inactive
18 | O=C1Nc2ccccc2C1=NCCc1c[nH]c2ccccc12 [NSC 136042] | inactive
19 | OC1(Cc2ccccn2)c2ccccc2CC1c1ccccc1 (centres unmarked) [NSC 147943] | inactive
20 | CCOc1ccccc1C1NC(=O)c2ccccc2N1 (centres unmarked) [NSC 158389] | inactive
21 | O=C1NC(c2ccccc2Cl)Nc2ccccc21 (centres unmarked) [NSC 175633] | inactive
22 | CC1(C)CC(=O)C2=C(C1)Nc1ccc(Cl)cc1NC2c1ccccc1 (centres unmarked) [NSC 186216] | inactive
23 | O=C1CCCC2=C1C(c1ccncc1)Nc1ccccc1N2 (centres unmarked) [NSC 186218] | inactive
24 | Cc1ccc2c(c1)Nc1ccccc1C(=O)N2 [NSC 202050] | inactive

Row | Structure (SMILES) | AC50 (μM)
25 | Cl.N[C@@H](Cc1c[nH]c2ccccc12)C(=O)OCc1ccccc1 [NSC 202376] | inactive
26 | Cc1nc(N)[nH]c(=O)c1CCCNc1cccc(C(F)(F)F)c1 [NSC 210448] | inactive
27 | O=c1[nH]cc(Cc2cccc(OCc3ccccc3)c2)c(=O)[nH]1 [NSC 210777] | inactive
28 | NC(=O)C1CCCN(C(=O)Nc2ccccc2F)C1 (centres unmarked) [NSC 213798] | inactive
29 | COc1cc(OC)c(NC(=O)CC2SC(N)=NC2=O)cc1Cl (centres unmarked) [NSC 247010] | inactive
30 | CC1=CC2C(c3ccccc3)Nc3ccccc3N2C1=O (centres unmarked) [NSC 263759] | inactive
31 | O=C1c2ccccc2C(O)N1CCc1c[nH]c2ccccc12 (centres unmarked) [NSC 338155] | inactive
32 | CNC1NC(=O)c2ccccc2N1Cc1ccc(F)cc1 (centres unmarked) [NSC 364164] | inactive
33 | CCOC(=O)c1ccc2c(c1)NCc1cccc(OC)c1O2 [NSC 364889] | inactive
34 | Cl.NCCc1c[nH]c2ccccc12 [NSC 522258] | inactive
35 | CC1CC2=C(C(=O)O1)C(c1ccccc1)Nc1ccccc1N2 (centres unmarked) [NSC 637579] | inactive
36 | CC(=O)C1CC(C)=CCC12C(=O)Nc1ccccc12 (centres unmarked) [NSC 642717] | inactive
37 | O=C1Nc2ccccc2C12CCNC2Cc1ccccc1 (centres unmarked) [NSC 643518] | weak
38 | c1ccc(C2Nc3ccccc3C3OCCCC23)cc1 (centres unmarked) [NSC 645796] | inactive
39 | COc1ccccc1N1C(=O)CSC1c1c[nH]c2ccccc12 (centres unmarked) [NSC 655348] | inactive
40 | CC(=O)N1C(C(=O)NC2CCCCC2)CSC1c1ccccc1 (centres unmarked) [NSC 669300] | inactive
41 | O=C(NCCc1c(-c2ccccc2)[nH]c2ccccc12)C(F)(F)F [NSC 674639] | inactive
42 | CN(C)Cc1c(-c2ccccc2)[nH]c2ccccc12 [TH12166] | inactive

Same assay, conditions: concentration giving 50% of the incision rate of OGG1 with APE1 (2 nM) control; read-out: AC50 (CI95%)

Row | Structure (SMILES) | AC50
43 | NCCc1c(-c2cncc(F)c2)[nH]c2ccc(O)cc12 [Compound 41, 3-(2-Aminoethyl)-2-(5-fluoropyridin-3-yl)-1H-indol-5-ol] | 0.74 µM

Same assay, conditions: inhibition of OGG1

Row | Structure (SMILES) | IC50
44 | CN(C)Cc1c(-c2ccccc2)[nH]c2ccccc12 [TH12166] | 15.5 µM
